Test results: ChEMBL document CHEMBL5365517, “Molecular Design of Cyclic Peptides with Cell Membrane Permeability and Development of MDMX-p53 Inhibitor” (ACS Med Chem Lett, 2023)
Starred links: 1 amine or outer side, 2 acyl side, 3 side chain; linkers in the order of their positions; H or OH if unused. Non-standard residues stand in square brackets, D forms with d. Residues, ends and D or L forms follow the SMILES beside them. Ala(4-thiazolyl) = N[C@@H](Cc1cscn1)C(=O)O; Phe(4-Cl) = N[C@@H](Cc1ccc(Cl)cc1)C(=O)O; X1 = CCC(CC)C[C@@H](C(=O)[*:2])N(C)[*:1]; Phe(4-F) = N[C@@H](Cc1ccc(F)cc1)C(=O)O; NMeF = CN[C@@H](Cc1ccccc1)C(=O)O; NMeL = CN[C@@H](CC(C)C)C(=O)O; Ahp(2) = CCCCC[C@H](N)C(=O)O; Tle = CC(C)(C)[C@H](N)C(=O)O; hSer = N[C@@H](CCO)C(=O)O; NMeA = CN[C@@H](C)C(=O)O; dNMeA = CN[C@H](C)C(=O)O

Key:
[1] = Apparent permeability across apical to basolateral side in MDCK-II cells at 10 uM incubated for 2 hrs by LC/MS/MS analysis; type: ADME, cell-based, Canis lupus familiaris; details: dog
Protein Mdm4 = biological target: T1, Protein Mdm4 (Homo sapiens, UniProt O15151); assay: Inhibition of N-terminal biotin-his-tagged MDMX (24 to 108 residues)(unknown origin) binding to p53 incubated for 1 hr by Alphascreen assay
T1 sequence (O15151 whole entry): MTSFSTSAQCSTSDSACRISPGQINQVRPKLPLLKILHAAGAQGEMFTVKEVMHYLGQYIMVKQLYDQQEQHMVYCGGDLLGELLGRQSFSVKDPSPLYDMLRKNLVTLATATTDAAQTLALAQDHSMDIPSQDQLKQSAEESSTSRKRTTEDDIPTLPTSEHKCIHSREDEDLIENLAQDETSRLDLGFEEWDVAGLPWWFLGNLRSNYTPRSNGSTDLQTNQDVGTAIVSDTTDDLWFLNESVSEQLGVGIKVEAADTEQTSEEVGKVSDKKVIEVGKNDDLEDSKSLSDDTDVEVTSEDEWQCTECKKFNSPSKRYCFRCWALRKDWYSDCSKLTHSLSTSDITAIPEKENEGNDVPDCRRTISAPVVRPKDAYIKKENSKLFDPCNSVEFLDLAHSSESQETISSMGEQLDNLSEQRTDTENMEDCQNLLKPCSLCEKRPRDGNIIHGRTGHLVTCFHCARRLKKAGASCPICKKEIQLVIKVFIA

Row | Structure (SMILES) | Papp A→B at 2 h, 10 µM [1] | IC50 (Protein Mdm4)
1 | COCC[C@@H]1NC(=O)[C@H]2CCCN2C(=O)[C@H](Cc2ccccc2)N(C)C(=O)[C@H](Cc2ccc(Cl)cc2)NC(=O)[C@H](C(C)(C)C)NC(=O)[C@H](Cc2ccc(F)cc2)NC(=O)[C@H](C)N(C)C(=O)[C@@H](C)N(C)C(=O)[C@H](Cc2cscn2)NC(=O)[C@H](C)N(C)C1=O (cyclo([Ala(4-thiazolyl)][dNMeA][NMeA][Phe(4-F)][Tle][Phe(4-Cl)][NMeF][dP][hSer](Me)[NMeA])) | 0.07 ×10⁻⁶ cm/s | 30 nM
2 | CCCCC[C@@H]1NC(=O)[C@H](CC(C)C)N(C)C(=O)[C@H](Cc2ccc(F)cc2)NC(=O)[C@H](C)N(C)C(=O)[C@@H](C)N(C)C(=O)[C@H](Cc2cscn2)NC(=O)[C@H](C)N(C)C(=O)[C@H](CCOC)NC(=O)[C@H]2CCCN2C(=O)[C@H](CC(CC)CC)N(C)C1=O (cyclo([Ahp(2)][X1][dP][hSer](Me)[NMeA][Ala(4-thiazolyl)][dNMeA][NMeA][Phe(4-F)][NMeL])) | 0.8 ×10⁻⁶ cm/s | 70 nM
